According to patent US20240197760A1, “ACTIVATORS OF INTEGRATED STRESS RESPONSE PATHWAY FOR PROTECTION AGAINST FERROPTOSIS” (Burke Neurological Institute, priority 2021, published 2024):

Experiments:
JTC-19 line = settings: JTC-19 lung cancer line; cited from earlier work
human Bdnf promoters = assay: Human Bdnf promoter luciferase reporters in HT22 cells; type: cell-based, mouse; settings: 10 mM, 6 h
AMPK = AMPK phosphorylation (threonine 172) immunoblot in primary cortical neurons; type: cell-based, mouse; settings: increasing concentrations 1-15 mM, 4 h
Protocol: Whole cell proteins were extracted in Triton X-100 lysis buffer (1% Triton X-100, 1% SDS, 50 mM Tris-Cl, pH 7.4, 500 mM NaCl and 1 mM EDTA). Samples were boiled in Laemmli buffer and electrophoresed under reducing conditions on NuPAGER Novex 4-12% Bis-Tris Gel polyacrylamide gels (Invitrogen). Proteins were transferred to a nitrocellulose membrane (Bio-Rad) by electroblotting. Nonspecific binding was inhibited by incubation in Odyssey blocking buffer (LI-COR Biosciences). Antibodies against Glut3 (Abcam, Catalog no. AB41525, dilution 1:1000), actin (Sigma Aldrich, Catalog no. A5316, dilution 1:10000), BDNF (Santacruz Biotechnology, Catalog no. sc-546, dilution 1:10,000), tubulin (Sigma Aldrich, Catalog no. T8203, dilution 1:10000), p-AMPK (Cell Signaling Technology, Cat no. 2535L, dilution 1:1000), AMPK (Cell Signaling Technology, Cat no. 2532L, dilution 1:1000), GFP (Cell Signaling Technology, Cat no. 2555S, dilution 1:2000), elF2S1 (phospho S51) (Abcam, Catalog no. AB32157, dilution 1:500), and eIF2α (Cell Signaling Technology, Cat no. 9722, dilution 1:500) were diluted in odyssey blocking buffer and the membranes were incubated overnight at 4° C. […] Finally, proteins were detected using an Odyssey infrared imaging system (LI-COR Biosciences).

[1] = indicated by FDG PET studies; cited from earlier work
AMP/ATP ratio = AMP/ATP ratio from metabolic profiling of mouse primary neurons; type: cell-based; settings: 10 mM, 8 h
Protocol: Targeted Metabolite profiling was performed according to a method described in a previous publication (Chen et al., 2016). Polar metabolites were extracted using cold 80% methanol. The extracts were dried completely with a Speedvac and redissolved in water before it was applied to the hydrophilic interaction chromatography LC-MS. The sample injection order was randomized. Metabolites were measured on a Q Exactive Orbitrap mass spectrometer (Thermo Scientific), which was coupled to a Vanquish UPLC system (Thermo Scientific) via an Ion Max ion source with a HESI II probe (Thermo Scientific). A Sequant ZIC-[…] column (2.1 mm i.d.×150 mm, particle size of 5 μm, Millipore Sigma) was used for separation of metabolites. A 2.1×20 mm guard column with the same packing material was used for protection of the analytical column. Flow rate was set at […]. […] The MS data was processed using XCalibur 4.1 (Thermo Scientific) to extract the metabolite signal intensity for relative quantitation. […] In pathway enrichment analysis, a single P value is calculated for each metabolic pathway. Pathway topology analysis measured the significance of a given experimentally identified metabolite in a pre-defined metabolic pathway.

OC[C@H]1OC(O)C[C@@H](O)[C@@H]1O (stereo partly drawn) [2-DG, (4R,5S,6R)-6-(hydroxymethyl)oxane-2,4,5-triol]
Bdnf gene expression (JTC-19 line): inhibit the Bdnf gene expression
promoter activity of nine human Bdnf promoters (human Bdnf promoters): all Bdnf promoters except Bdnf promoter VI were significantly upregulated
level of AMPK phosphorylation at threonine 172 (AMPK): biphasic
crossing of the blood brain barrier [1]: can easily cross the blood brain barrier
AMP-ATP ratio (AMP/ATP ratio): increase
